Experimental data reported in patent US20250215039A1, “NUCLEOSIDES FOR TREATING CANCER” (PRIMEFOUR THERAPEUTICS, INC., priority 2022, published 2025).
Read-outs that look alike come from different tables or passages of the source.

Test system: cancer cell lines
Experiment: Cancer cell proliferation activity (CellTiterGlo, 72 h)
Type: cell-based
Settings: 72 h, 72 h, read-out: IC50 cell proliferation
Procedure, shortened: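 Cells seeded overnight at 37 °C, then dosed with compound at 0.1% final DMSO and incubated 72 h at 37 °C (5% or 10% CO2 by medium).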

Nc1nc(F)nc2c1ncn2[C@@H]1O[C@H](CO)[C@@H](O)[C@H]1O [compound 184, (2R,3R,4S,5R)-2-(6-amino-2-fluoro-9H-purin-9-yl)-5-(hydroxymethyl)tetrahydrofuran-3,4-diol]
IC50 (5637 (bladder)): 190 nM | IC50 (CLS439 (bladder)): 60 nM | IC50 (HS729 (muscle)): 100 nM | IC50 (J82 (bladder)): 100 nM | IC50 (JAR (placenta)): 40 nM | IC50 (MT3 (breast)): 90 nM | IC50 (PANCI (pancreas)): 130 nM | IC50 (PC3 (prostate)): 40 nM | IC50 (RD (muscle)): 60 nM | IC50 (T24 (bladder)): 60 nM | IC50 (Homo sapiens, 22Rv1, 72 h, 22RV1 (prostate)): 220 nM | IC50 (Homo sapiens, 786-0, 72 h, 786O (kidney)): 50 nM | IC50 (Homo sapiens, A204, 72 h, A204 (muscle)): 20 nM | IC50 (Homo sapiens, A549, 72 h, A549 (lung)): 40 nM | IC50 (Homo sapiens, A673, 72 h, A673 (bone)): 270 nM | IC50 (Homo sapiens, A2780, 72 h, A2780 (ovary)): 150 nM | IC50 (Homo sapiens, A-375, 72 h, A375 (skin)): 40 nM | IC50 (Homo sapiens, A-431, 72 h, A431 (skin)): 40 nM | IC50 (Homo sapiens, ACHN, ACHN (kidney)): 20 nM | IC50 (Homo sapiens, ASPC1, 72 h, ASPC1 (pancreas)): 30 nM | IC50 (Homo sapiens, BT-20, 72 h, BT20 (breast)): 30 nM | IC50 (Homo sapiens, BXPC-3, 72 h, BXPC3 (pancreas)): 80 nM | IC50 (Homo sapiens, C-33-A, C33A (endometrial)): 50 nM | IC50 (Homo sapiens, CAKI-1, 72 h, CAKI1 (kidney)): 10 nM | IC50 (Homo sapiens, COLO 205, 72 h, COLO205 (colon)): 120 nM | IC50 (Homo sapiens, COLO-678, 72 h, COLO678 (colon)): 60 nM | IC50 (Homo sapiens, Ca-Ski, CASKI (endometrial)): 30 nM | IC50 (Homo sapiens, Caco-2, 72 h, CACO2 (colon)): 190 nM | IC50 (Homo sapiens, Calu-6, 72 h, CALU6 (lung)): 30 nM | IC50 (Homo sapiens, DLD-1, 72 h, DLD1 (colon)): 90 nM | IC50 (Homo sapiens, DU-145, 72 h, DU145 (prostate)): 20 nM | IC50 (Homo sapiens, EFO-21, 72 h, EFO21 (ovary)): 70 nM | IC50 (Homo sapiens, EJ-28, 72 h, EJ28 (bladder)): 30 nM | IC50 (Homo sapiens, Granta-519, 72 h, GRANTA-519 (hematological)): 110 nM | IC50 (Homo sapiens, HCT-15, 72 h, HCT15 (colon)): 40 nM | IC50 (Homo sapiens, HCT-116, 72 h, HCT116 (colon)): 140 nM | IC50 (Homo sapiens, HEK293, 72 h, HEK293 (kidney)): 50 nM | IC50 (Homo sapiens, HL-60, 72 h, HL-60 (hematological)): 40 nM | IC50 (Homo sapiens, HT-29, 72 h, HT29 (colon)): 70 nM | IC50 (Homo sapiens, HT-1080, 72 h, HT1080 (connective tissue)): 70 nM | IC50 (Homo sapiens, HeLa, HELA (endometrial)): 70 nM | IC50 (Homo sapiens, HepG2, 72 h, HEPG2 (liver)): 40 nM | IC50 (Homo sapiens, Hs-578T, HS578T (breast)): 80 nM | IC50 (Homo sapiens, IGROV-1, 72 h, IGROV1 (ovary)): 50 nM | IC50 (Homo sapiens, IMR-90, 72 h, IMR90 (lung)): 30 nM | IC50 (Homo sapiens, JEG-3, 72 h, JEG3 (placenta)): 40 nM | IC50 (Homo sapiens, JIMT-1, 72 h, JIMT1 (breast)): 20 nM | IC50 (Homo sapiens, K562, 72 h, K-562 (hematological)): 120 nM | IC50 (Homo sapiens, Kasumi 1, 72 h, KASUMI-1 (hematological)): 10 nM | IC50 (Homo sapiens, L-363, 72 h, L-363 (hematological)): 20 nM | IC50 (Homo sapiens, LoVo, LOVO (colon)): 20 nM | IC50 (Homo sapiens, MCF7, 72 h, MCF7 (breast)): 100 nM | IC50 (Homo sapiens, MDA-MB-231, 72 h, MDAMB231 (breast)): 40 nM | IC50 (Homo sapiens, MDA-MB-435, 72 h, MDAMB435 (skin)): 50 nM | IC50 (Homo sapiens, MDA-MB-436, 72 h, MDAMB436 (breast)): 40 nM | IC50 (Homo sapiens, MDA-MB-468, 72 h, MDAMB468 (breast)): 80 nM | IC50 (Homo sapiens, MG-63, 72 h, MG63 (bone)): 390 nM | IC50 (Homo sapiens, MHH-ES-1, 72 h, MHHES1 (bone)): 70 nM | IC50 (Homo sapiens, MIA PaCa-2, 72 h, MIAPACA2 (pancreas)): 130 nM | IC50 (Homo sapiens, MINO, MINO (hematological)): 10 nM | IC50 (Homo sapiens, MV4-11, 72 h, MV4-11 (hematological)): 20 nM | IC50 (Homo sapiens, NCI-H23, 72 h, NCI-H23 (lung)): 40 nM | IC50 (Homo sapiens, NCI-H82, 72 h, NCIH82 (lung)): 60 nM | IC50 (Homo sapiens, NCI-H292, 72 h, NCIH292 (lung)): 90 nM | IC50 (Homo sapiens, NCI-H460, 72 h, NCIH460 (lung)): 40 nM | IC50 (Homo sapiens, OVCAR-3, 72 h, OVCAR3 (ovary)): 40 nM | IC50 (Homo sapiens, OVCAR-4, 72 h, OVCAR4 (ovary)): 50 nM | IC50 (Homo sapiens, PLC-PRF-5, 72 h, PLCPRF5 (liver)): 230 nM | IC50 (Homo sapiens, Panc1005, 72 h, PANC1005 (pancreas)): 50 nM | IC50 (Homo sapiens, Ramos, RAMOS (hematological)): 140 nM | IC50 (Homo sapiens, SAOS-2, 72 h, SAOS2 (bone)): 50 nM | IC50 (Homo sapiens, SF-268, 72 h, SF268 (brain)): 160 nM | IC50 (Homo sapiens, SF-295, 72 h, SF295 (brain)): 160 nM | IC50 (Homo sapiens, SK-BR-3, 72 h, SKBR3 (breast)): 10 nM | IC50 (Homo sapiens, SK-HEP1, 72 h, SKHEP1 (liver)): 20 nM | IC50 (Homo sapiens, SK-LMS-1, 72 h, SKLMS1 (uterus)): 40 nM | IC50 (Homo sapiens, SK-MEL-5, 72 h, SKMEL5 (skin; SKMELS [sic] in Table 9E)): 50 nM | IC50 (Homo sapiens, SK-MEL-28, 72 h, SKMEL28 (skin)): 100 nM | IC50 (Homo sapiens, SK-N-AS, SKNAS (brain)): 30 nM | IC50 (Homo sapiens, SK-N-SH, SKNSH (brain)): 30 nM | IC50 (Homo sapiens, SK-OV-3, 72 h, SKOV3 (ovary)): 50 nM | IC50 (Homo sapiens, SNB-75, 72 h, SNB75 (brain)): 100 nM | IC50 (Homo sapiens, SU-DHL10, 72 h, SU-DHL-10 (hematological)): 180 nM | IC50 (Homo sapiens, SU-DHL-6, 72 h, SU-DHL-6 (hematological)): 10 nM | IC50 (Homo sapiens, SW-620, 72 h, SW620 (colon)): 30 nM | IC50 (Homo sapiens, TE-671, 72 h, TE671 (muscle)): 150 nM | IC50 (Homo sapiens, THP-1, 72 h, THP-1 (hematological)): 20 nM | IC50 (Homo sapiens, U2OS, U20S (bone; U2OS in Table 9E)): 40 nM | IC50 (Homo sapiens, U-87 MG, U87MG (brain)): 30 nM | IC50 (Homo sapiens, UMUC3, 72 h, UMUC3 (bladder)): 30 nM | IC50 (Homo sapiens, UO-31, 72 h, UO31 (kidney)): 50 nM | IC50 (Homo sapiens, WSU-NHL, WSU-NHL (hematological)): 30 nM | IC50 (NCI-H358M, NCIH358M (lung)): 70 nM | IC50 (PBMC, PBMC (hematological)): 180 nM | IC50 (RD-ES, RDES (bone)): 20 nM
